Target: ROCK2 (Homo sapiens (Human), UniProt O75116)
Assay: ROCK assay (peptide substrate phosphorylation, LABCHIP 3000 Reader)
Assay type: biochemical
Details: 5 μM ATP, 1.5 μM peptide substrate
Method: Compounds were dissolved in DMSO so that the final concentration of DMSO was <2%, and the reaction was initiated with Rho kinase variants. After incubation, the reaction was terminated by the addition of EDTA and the phosphorylated and non-phosphorylated peptides separated using a LABCHIP® 3000 Reader (Caliper Life Sciences). […] Compounds were tested in dose-response format, and the inhibition of kinase activity was calculated at each concentration of compound.

Sequence of ROCK2 (O75116 whole entry, species assumed): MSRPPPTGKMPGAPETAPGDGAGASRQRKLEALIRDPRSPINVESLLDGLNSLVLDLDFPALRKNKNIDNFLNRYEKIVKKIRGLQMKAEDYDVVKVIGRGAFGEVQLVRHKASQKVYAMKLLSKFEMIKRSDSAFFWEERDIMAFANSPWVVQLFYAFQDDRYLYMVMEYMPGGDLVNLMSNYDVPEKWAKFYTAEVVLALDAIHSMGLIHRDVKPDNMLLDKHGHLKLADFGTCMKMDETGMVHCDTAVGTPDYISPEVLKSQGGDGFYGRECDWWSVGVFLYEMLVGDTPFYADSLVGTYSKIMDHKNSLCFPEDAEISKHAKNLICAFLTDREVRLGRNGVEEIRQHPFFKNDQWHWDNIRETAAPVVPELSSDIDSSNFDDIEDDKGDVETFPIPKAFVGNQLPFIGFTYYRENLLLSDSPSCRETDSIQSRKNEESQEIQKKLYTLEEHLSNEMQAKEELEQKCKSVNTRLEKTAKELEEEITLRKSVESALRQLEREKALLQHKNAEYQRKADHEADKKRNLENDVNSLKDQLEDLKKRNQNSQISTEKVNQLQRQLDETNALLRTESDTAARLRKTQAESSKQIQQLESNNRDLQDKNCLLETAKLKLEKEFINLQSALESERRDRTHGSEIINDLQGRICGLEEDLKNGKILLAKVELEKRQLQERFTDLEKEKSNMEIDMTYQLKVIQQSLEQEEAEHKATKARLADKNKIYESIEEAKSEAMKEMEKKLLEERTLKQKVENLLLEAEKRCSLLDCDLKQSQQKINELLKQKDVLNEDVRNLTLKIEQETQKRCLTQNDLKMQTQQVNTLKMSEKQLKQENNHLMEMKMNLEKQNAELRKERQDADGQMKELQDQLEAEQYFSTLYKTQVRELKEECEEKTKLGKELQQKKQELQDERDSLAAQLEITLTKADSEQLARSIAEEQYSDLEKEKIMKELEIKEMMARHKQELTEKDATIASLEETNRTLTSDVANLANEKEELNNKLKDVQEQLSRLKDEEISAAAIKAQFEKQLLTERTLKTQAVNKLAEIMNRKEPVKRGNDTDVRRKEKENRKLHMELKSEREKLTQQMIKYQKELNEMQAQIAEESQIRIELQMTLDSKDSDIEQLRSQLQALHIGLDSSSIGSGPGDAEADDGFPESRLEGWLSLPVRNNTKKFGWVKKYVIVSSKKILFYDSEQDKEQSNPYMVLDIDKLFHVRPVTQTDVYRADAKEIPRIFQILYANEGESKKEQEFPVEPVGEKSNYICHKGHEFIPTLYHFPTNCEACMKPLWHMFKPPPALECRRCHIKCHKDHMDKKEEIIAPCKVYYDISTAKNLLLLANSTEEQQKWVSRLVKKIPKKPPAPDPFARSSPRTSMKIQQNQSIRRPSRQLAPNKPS

IC50	Structure (SMILES)
5.32 nM	COc1cc(C(=O)N2CC(O)C[C@@H]2c2cccc(C(=O)NC3CC3)c2)ccc1-c1cn[nH]c1 (stereo partly drawn) [Example 48, N-cyclopropyl-3-[(2R)-4-hydroxy-1-[3-methoxy-4-(1H-pyrazol-4-yl)benzoyl]pyrrolidin-2-yl]benzamide]
43.4 nM	CCN1CCC[C@H]1CNC(=O)c1cccc([C@H]2CC(O)CN2C(=O)c2ccc(-c3cn[nH]c3)c(OC)c2)c1 (stereo partly drawn) [Example 49, N-{[(2S)-1-ethylpyrrolidin-2-yl]methyl}-3-[(2R)-4-hydroxy-1-[3-methoxy-4-(1H-pyrazol-4-yl)benzoyl]pyrrolidin-2-yl]benzamide]
5.1 nM	COCCNC(=O)c1cccc([C@H]2CC(O)CN2C(=O)c2ccc(-c3cn[nH]c3)c(OC)c2)c1 (stereo partly drawn) [Example 50, 3-[(2R)-4-hydroxy-1-[3-methoxy-4-(1H-pyrazol-4-yl)benzoyl]pyrrolidin-2-yl]-N-(2-methoxyethyl) benzamide]
2.71 nM	COc1cc(C(=O)N2CC(O)C[C@@H]2c2cccc(C(=O)NCC3CC3)c2)ccc1-c1cn[nH]c1 (stereo partly drawn) [Example 51, N-(cyclopropylmethyl)-3-[(2R)-4-hydroxy-1-[3-methoxy-4-(1H-pyrazol-4-yl)benzoyl]pyrrolidin-2-yl]benzamide]
6.68 nM	COc1cc(C(=O)N2CC(O)C[C@@H]2c2cccc(C(=O)NC(C)C)c2)ccc1-c1cn[nH]c1 (stereo partly drawn) [Example 52, 3-[(2R)-4-hydroxy-1-[3-methoxy-4-(1H-pyrazol-4-yl)benzoyl]pyrrolidin-2-yl]-N-(propan-2-yl)benzamide]
5.09 nM	COc1cc(C(=O)N2CC(O)C[C@@H]2c2cccc(C(=O)NC3CCC3)c2)ccc1-c1cn[nH]c1 (stereo partly drawn) [Example 54, N-cyclobutyl-3-[(2R)-4-hydroxy-1-[3-methoxy-4-(1H-pyrazol-4-yl)benzoyl]pyrrolidin-2-yl]benzamide]
2.5 nM	COc1cc(C(=O)N2CC(O)C[C@@H]2c2cccc(C(=O)NCc3ncco3)c2)ccc1-c1cn[nH]c1 (stereo partly drawn) [Example 55, 3-[(2R)-4-hydroxy-1-[3-methoxy-4-(1H-pyrazol-4-yl)benzoyl]pyrrolidin-2-yl]-N-(1,3-oxazol-2-ylmethyl)benzamide]
7.17 nM	COc1cc(C(=O)N2CC(O)C[C@@H]2c2cccc(C(=O)NC3CCOCC3)c2)ccc1-c1cn[nH]c1 (stereo partly drawn) [Example 56, 3-[(2R)-4-hydroxy-1-[3-methoxy-4-(1H-pyrazol-4-yl)benzoyl]pyrrolidin-2-yl]-N-(oxan-4-yl)benzamide]
43.4 nM	COc1cc(C(=O)N2CC(O)C[C@@H]2c2cccc(C(=O)NC3(C)CC3)c2)ccc1-c1cn[nH]c1 (stereo partly drawn) [Example 57, 3-[(2R)-4-hydroxy-1-[3-methoxy-4-(1H-pyrazol-4-yl)benzoyl]pyrrolidin-2-yl]-N-(1-methylcyclopropyl) benzamide]
5.32 nM	COc1cc(C(=O)N2CC(O)C[C@@H]2c2cccc(C(=O)NCc3cc(C)no3)c2)ccc1-c1cn[nH]c1 (stereo partly drawn) [Example 58, 3-[(2R)-4-hydroxy-1-[3-methoxy-4-(1H-pyrazol-4-yl)benzoyl]pyrrolidin-2-yl]-N-[(3-methyl-1,2-oxazol-5-yl)methyl] benzamide]
1.8 nM	COc1cc(C(=O)N2CC(O)C[C@@H]2c2cccc(C(=O)NCc3cc(C)on3)c2)ccc1-c1cn[nH]c1 (stereo partly drawn) [Example 59, 3-[(2R)-4-hydroxy-1-[3-methoxy-4-(1H-pyrazol-4-yl)benzoyl]pyrrolidin-2-yl]-N-[(5-methyl-1,2-oxazol-3-yl)methyl] benzamide]
4.08 nM	COc1cc(C(=O)N2CC(O)C[C@@H]2c2cccc(C(=O)NCC(F)F)c2)ccc1-c1cn[nH]c1 (stereo partly drawn) [Example 60, N-(2,2-difluoroethyl)-3-[(2R)-4-hydroxy-1-[3-methoxy-4-(1H-pyrazol-4-yl)benzoyl]pyrrolidin-2-yl]benzamide]
102 nM	COc1cc(C(=O)N2CC(O)C[C@@H]2c2cccc(C(=O)N3CC(C#N)C3)c2)ccc1-c1cn[nH]c1 (stereo partly drawn) [Example 61, 1-{3-[(2R)-4-hydroxy-1-[3-methoxy-4-(1H-pyrazol-4-yl)benzoyl]pyrrolidin-2-yl]benzoyl} azetidin-3-carbonitrile]
316 nM	COc1cc(C(=O)N2CC(O)C[C@@H]2c2cccc(C(=O)N3CC(OC)C3)c2)ccc1-c1cn[nH]c1 (stereo partly drawn) [Example 62, (5R)-1-[3-methoxy-4-(1H-pyrazol-4-yl)benzoyl]-5-[3-(3-methoxyazetidine-1-carbonly)phenyl] pyrrolidin-3-ol]
5.25 nM	COc1cc(C(=O)N2CC(O)C[C@@H]2c2cccc(C(=O)NCc3ccc(C(F)(F)F)cc3F)c2)ccc1-c1cn[nH]c1 (stereo partly drawn) [Example 63, N-{[2-fluoro-4-(trifluoromethyl)phenyl]methyl}-3-[(2R)-4-hydroxy-1-[3-methoxy-4-(1H-pyrazol-4-yl)benzoyl]pyrrolidin-2-yl]benzamide]
204 nM	COc1cc(C(=O)N2CC(O)C[C@@H]2c2cccc(C(=O)N3CC(F)C3)c2)ccc1-c1cn[nH]c1 (stereo partly drawn) [Example 64, (5R)-5-[3-(3-fluoroazetidine-1-carbonyl)phenyl]-1-[3-methoxy-4-(1H-pyrazol-4-yl)benzoyl]pyrrolidin-3-ol]
91.4 nM	COc1cc(C(=O)N2CC(O)C[C@@H]2c2cccc(C(=O)N3CC(F)(F)C3)c2)ccc1-c1cn[nH]c1 (stereo partly drawn) [Example 65, (5R)-5-[3-(3,3-difluoroazetidine-1-carbonyl)phenyl]-1-[3-methoxy-4-(1H-pyrazol-4-yl)benzoyl]pyrrolidin-3-ol]

IC50	Structure (SMILES)
4.35 nM	COc1cc(C(=O)N2CC(O)C[C@@H]2c2cccc(C(=O)NCc3cc(F)cc(C(F)(F)F)c3)c2)ccc1-c1cn[nH]c1 (stereo partly drawn) [Example 66, N-{[3-fluoro-5-(trifluoromethyl)phenyl]methyl}-3-[(2R)-4-hydroxy-1-[3-methoxy-4-(1H-pyrazol-4-yl)benzoyl]pyrrolidin-2-yl]benzamide]
293 nM	COc1cc(C(=O)N2CC(O)C[C@@H]2c2cccc(C(=O)N3CCC3)c2)ccc1-c1cn[nH]c1 (stereo partly drawn) [Example 67, (5R)-5-[3-(azetidine-1-carbonyl)phenyl]-1-[3-methoxy-4-(1H-pyrazol-4-yl)benzoyl]pyrrolidin-3-ol]
60.2 nM	COc1cc(C(=O)N2CCNCC2c2ccccc2)ccc1-c1cn[nH]c1 (stereo not shown) [Example 68, 1-[3-Methoxy-4-(1H-pyrazol-4-yl)benzoyl]-2-phenylpiperazine]
3.59 nM	COc1cc(C(=O)N[C@@H]2CNC[C@H]2c2ccccc2)ccc1-c1cn[nH]c1 [Example 69, 3-Methoxy-N-[(3S,4R)-4-phenylpyrrolidin-3-yl]-4-(1H-pyrazol-4-yl)benzamide]
54.9 nM	COc1cc(C(=O)N2CCCC2c2cccc(-c3cn[nH]c3)c2)ccc1-c1cn[nH]c1 (stereo not shown) [Example 71, 4-(2-Methoxy-4-{2-[3-(1H-pyrazol-4-yl)phenyl]pyrrolidine-1-carbonyl}phenyl)-1H-pyrazole]
1600 nM	COc1cc(-c2cn[nH]c2)ccc1C(=O)N1CCCC1c1cccc(-c2cn[nH]c2)c1 (stereo not shown) [Example 72, 4-(3-methoxy-4-{2-[3-(1H-pyrazol-4-yl)phenyl]pyrrolidine-1-carbonyl}phenyl)-1H-pyrazole]
1530 nM	COc1cc(C(=O)N2CCCC2c2cccc(-c3ccnn3C)c2)ccc1-c1cn[nH]c1 (stereo not shown) [Example 73, 5-(3-{1-[3-methoxy-4-(1H-pyrazol-4-yl)benzoyl]pyrrolidin-2-yl}phenyl)-1-methyl-1H-pyrazole]
901 nM	COc1cc(C(=O)N2CCCC2c2cccc(-c3cnn(CC(C)(C)O)c3)c2)ccc1-c1cn[nH]c1 (stereo not shown) [Example 74, 1-[4-(3-{1-[3-methoxy-4-(1H-pyrazol-4-yl)benzoyl]pyrrolidin-2-yl}phenyl)-1H-pyrazol-1-yl]-2-methylpropan-2-ol]
1570 nM	COc1cc(C(=O)N2CCCC2c2cccc(-c3c(C)noc3C)c2)ccc1-c1cn[nH]c1 (stereo not shown) [Example 75, 4-(3-{1-[3-methoxy-4-(1H-pyrazol-4-yl)benzoyl]pyrrolidin-2-yl}phenyl)-3,5-dimethyl-1,2-oxazole]
320 nM	COc1cc(C(=O)N2CCCC2c2cccc(-c3ccoc3)c2)ccc1-c1cn[nH]c1 (stereo not shown) [Example 76, 4-(4-{2-[3-(furan-3-yl)phenyl]pyrrolidine-1-carbonyl}-2-methoxyphenyl)-1H-pyrazole]
887 nM	COc1cc(C(=O)N2CCCC2c2cccc(-c3ccn[nH]3)c2)ccc1-c1cn[nH]c1 (stereo not shown) [Example 77, 4-(2-methoxy-4-{2-[3-(1H-pyrazol-5-yl)phenyl]pyrrolidine-1-carbonyl}phenyl)-1H-pyrazole]
4.7 nM	COc1cc(C(=O)N2CC(F)C[C@@H]2c2cccc(C(=O)NC3CC3)c2)ccc1-c1cn[nH]c1 (stereo partly drawn) [Example 78, N-Cyclopropyl-3-[(2R)-4-fluoro-1-[3-methoxy-4-(1H-pyrazol-4-yl)benzoyl]pyrrolidin-2-yl]benzamide]
24.3 nM	COc1cc(C(=O)N2CC(F)(F)C[C@@H]2c2cccc(C(=O)NC3CC3)c2)ccc1-c1ccncc1 [Example 79, N-Cyclopropyl-3-[(2R)-4,4-difluoro-1-[3-methoxy-4-(pyridin-4-yl)benzoyl]pyrrolidin-2-yl]benzamide]
5.4 nM	COc1cc(C(=O)N2CC(F)(F)C[C@@H]2c2cccc(C(=O)NC3CC3)c2)ccc1-c1cn[nH]c1 [Example 80, N-Cyclopropyl-3-[(2R)-4,4-difluoro-1-[3-methoxy-4-(1H-pyrazol-4-yl)benzoyl]pyrrolidin-2-yl]benzamide]
158 nM	COc1cccc(C2CCCN2C(=O)c2ccc(-c3ccnc(N)c3)c(OC)c2)c1 (stereo not shown) [Example 81, 4-{2-Methoxy-4-[2-(3-methoxyphenyl)pyrrolidine-1-carbonyl]phenyl} pyridin-2-amine]
56.8 nM	COc1cccc(C2CCCN2C(=O)c2ccc(-c3ccnc4[nH]ccc34)c(OC)c2)c1 (stereo not shown) [Example 82, 1-(3-methoxy-4-{1H-pyrrolo[2,3-b]pyridin-4-yl}benzoyl)-2-(3-methoxyphenyl) pyrrolidine]
153 nM	COc1cccc(C2CCCN2C(=O)c2ccc(-c3ccnc(F)c3)c(OC)c2)c1 (stereo not shown) [Example 83, 2-fluoro-4-{2-methoxy-4-[2-(3-methoxyphenyl)pyrrolidine-1-carbonyl]phenyl}pyridine]

Source: patent publication US10112939B2, “Tied-back benzamide derivatives as potent rock inhibitors” (Bristol-Myers Squibb Company, priority 2014, dated 2018)
